Laboratory results from patent US20130116224A1, “Method and Composition for Treatment of Tumors” (priority 2010, published 2013).

Legend:
IMR = experiment: In vitro anti-cancer efficacy study of CTC-96, ATCC recommended growth condition (protocol GP687), cell viability and proliferation assay (RFU); format: cell-based; conditions: day 2, 20 μg/mL CTC-96, FIG. 2C, ATCC recommended medium
Method: (§1) B. In Vitro Anti-Cancer Efficacy Study of CTC-96 in Cell Lines Maintained in ATCC Recommended Growth Condition Using Approved Protocol GP687
(§2) For example in FIG. 2C, on day 2 with 20 μg/mL CTC-96. […] This difference among the cell lines was quite consistent at all initial seeding densities except for the highest (100%). At the three lower density seedings, the decrease in relative fluorescence units (RFU) was in a near linear relationship with increase of CTC-96 dose for LNCaP and RWPE cells. Both cell types began to show a response to CTC-96 at 5 μg/mL. (see FIGS. 2 C and D).
(§3) When cell proliferation data were obtained for all time points, the RFU reading on day 3 was considerably lower than the projected trend line as shown in FIG. 1. The possible cause was the variation in the incubation time as described in GP687 9.5.2.3. […] Due to time constraints, the incubation time carried out was shorter on day three than for the […]. The longer the incubation time, the greater the RFLI measured. Therefore, day 3 incubation data were not included in the analysis, see FIG. 2. […] Different cell density seedings allowed this study to maximally evaluate the anticancer efficacy of CTC-96. In vitro anticancer effectiveness can be categorized into: killing and inhibiting effects. High density seeding provides maximal numbers of cells to reveal the killing effect, which leads to extensive cell death with quick onset. Also high cell density sometimes provides some protection against cytotoxic effects. Low density seeding reduces the effects of contact inhibition in non-malignant cell lines and allows longer incubation with the drug. The longer treatment time allows observation of maximum inhibitory drug effects. In addition, low density cell seeding allows untreated cells to undergo several cell divisions.
(§4) In this study, four seeding densities of 100%, 50%, 25% and 12.5% were planned for each cell line.

RWPE = experiment: as above; format: cell-based
Method: as §1, §2, §3, §4

Malme-3M [1] = experiment: as above; format: cell-based, human; conditions: day 2, 20 μg/mL CTC-96, FIG. 2C, ATCC recommended medium
Method: as §1, §2, §3, §4

LNCaP [2] = experiment: as above; format: cell-based, human
Method: as §1, §2, §3, §4

IMR 90 = experiment: CTC-96 7-day treatment in RPMI1640/2% FBS (GP689 modified) and confirmation study, cell viability and proliferation assay; format: cell-based
Method: (§5) The study was performed as described in GP689 with modifications as follows:
(§6) The cell growth and test media was RPM11640/2% FBS. All cell lines were acclimated in this low-serum condition for about two weeks prior to treatment with CTC-96. CTC-96 treatment was extended to 7 days from the 3 days previously used. Cell viability and proliferation was measured and medium was changed on day 0, 2, 4 and 7. Fresh CTC-96 added during every medium change. Incubation for cell viability and proliferation assay was performed for 2 hours.
(§7) A new batch of all four test cell lines were acclimated in RPMII 640/2% FBS about 10 days prior to CTC-96 treatment. CTC-96 treatment started after […] of adaptation. A 96-well plate was used at the at the start of proliferation in an attempt to eliminate the peeling of LNCaP monolayers. A manual multichannel pipette was utilized to change medium on day 0. Peeling still occurred in one plate. That plate was arbitrarily assigned the last time point day 7 in order to have good plates of LNCaP for the first three time points in a row.
(§8) For medium changes on days 2, 4 and 7, only half of the media was replaced to completely eliminate the peeling in LNCaP. This method was utilized for the other three cell lines in order to keep the entire test system consistent for all the cell lines. The replacement media contained 1×CTC-96 concentrations and therefore only half of CTC-96 was freshly replaced. Incubation for cell viability and proliferation assay was performed for strictly 2 hours. Allover proliferation was good for all cell lines (see FIG. 6). Untreated ENCaP cells became 100% confluent in all seeding conditions on day 7. […] 4.2.5.2.1.3. The day 4 RFU reading was chosen in the proliferation percentage analysis because the peeling off in LNCaP Day 7 plate led to decrease on RFU so much that the trendline of untreated cells turned downwards instead of plateauing in high density seeding, (see FIG. 6 Al 3). Decay of CTC-96 may occur over 7 days period and inhibition might be lowered towards the end of treatment. The upward turn of the trendline for malignant cell lines in 5 μg/mL may indicate this decay, (see FIG. 6 A2-3, CI-4). Malignant cell lines were more sensitive to CTC-96 than their sister normal cell lines.

RWPE-1 = experiment: as above; format: cell-based
Method: as §5, §6, §7, §8

Malme-3M [3] = experiment: as above; format: cell-based, human
Method: as §5, §6, §7, §8

LNCaP [4] = experiment: as above; format: cell-based, human
Method: as §5, §6, §7, §8

[5] = 20 μg/mL CTC-96, day 2 vs day 0
[6] = FIGS. 2C and D, lower density seedings
[7] = day 2, 20 μg/mL CTC-96, FIG. 2C, ATCC recommended medium

How did the “total cells in comparison to untreated controls” value (“total cells in comparison” below) (IMR) turn out when `CC(/C=C(/C)[O-])=NCCN=C(C)/C=C(/C)[O-].Cc1ncc[nH]1.Cc1ncc[nH]1.[Br-].[Co+3]` [CTC-96] was run?
Its value is 72%.

What about the “killing effect (net cell loss)” value (RWPE; [5]) of the same compound?
The value was “lower number of cell on day 2 than on day 0”.

And the “concentration at which cells began to show a response” value (RWPE; [6])?
The value was 5 µg/mL.

What about the “total cells in comparison” value (RWPE; [7]) of the same compound?
The value was 10%.

What about the “total cells in comparison” value (Malme-3M [1]) of the same compound?
The value was 70%.

And the “killing effect (net cell loss)” value (LNCaP [2]; [5])?
Its value is “lower number of cell on day 2 than on day 0”.

And the “concentration at which cells began to show a response” value (LNCaP [2]; [6])?
The value was 5 µg/mL.

What about the “total cells in comparison” value (LNCaP [2]; [7]) of the same compound?
The value was 12%.

What about the proliferation (IMR 90; IMR 90, 5 μg/mL) of the same compound?
The proliferation was “continues proliferating”.

What about the proliferation (IMR 90; IMR, 10 μg/mL CTC-96, RPMI1640/2% FBS, 7-day treatment) of the same compound?
Its proliferation is “inhibited the proliferation”.

What about the “inhibition (proliferation percentage, day 4 RFU)” value (IMR 90; IMR, 10 μg/mL, confirmation study, FIG. 7) of the same compound?
Its value is “lower degree of inhibition”.

And the proliferation (RWPE-1; RWPE, 10 μg/mL CTC-96, RPMI1640/2% FBS, 7-day treatment)?
The proliferation was “inhibited the proliferation”.

And the “inhibition (proliferation percentage, day 4 RFU)” value (RWPE-1; RWPE, 10 μg/mL, confirmation study, FIG. 7)?
Its value is “lower degree of inhibition”.

And the proliferation (RWPE-1; RWPE-1, 25% cell density, 5 t μm/mL)?
The proliferation was “still proceeds proliferating, albeit, at a reduced rate”.

And the proliferation (RWPE-1; RWPE-1, 50% cell density, same drug concentration (5 μm/mL))?
Its proliferation is “minimally affected”.

What about the “cell elimination (cell loss)” value (RWPE-1; RWPF-1 (non-malignant counterpart), seeding densities 50% and 25%, concentration that killed the malignant cell line) of the same compound?
Its value is “no cell loss”.

What about the proliferation (Malme-3M [3]; Malme 3M, 1 μg/mL) of the same compound?
Its proliferation is “ceases proliferating”.

And the “cell elimination / proliferation” value (Malme-3M [3]; Malme 3M, 5 μg/mL drug concentration)?
Its value is “not killed, but stopped proliferating”.

And the “cell number relative to originally seeded” value (Malme-3M [3]; Malme-3M, 5 μg/mL CTC-96, RPMI1640/2% FBS, 7-day treatment, FIG. 4C)?
The value was “almost no change, or even had fewer cells than originally seeded”.

What about the “inhibition (proliferation percentage, day 4 RFU)” value (Malme-3M [3]; Malme-3M, 5 μg/mL, confirmation study, FIG. 7) of the same compound?
Its value is “greater inhibition”.

And the “cell number relative to originally seeded” value (LNCaP [4]; 5 μg/mL CTC-96, RPMI1640/2% FBS, 7-day treatment, FIG. 4A)?
The value was “almost no change, or even had fewer cells than originally seeded”.

And the “inhibition (proliferation percentage, day 4 RFU)” value (LNCaP [4]; 5 μg/mL, confirmation study, FIG. 7)?
Its value is “greater inhibition”.

And the proliferation (LNCaP [4]; 25% cell density, 5 t μm/mL)?
Its proliferation is “proliferation completely ceases”.

And the proliferation diminished (LNCaP [4]; 50% cell density, 5 μm/mL CTC-96, RPMI 1640/2% FBS)?
The proliferation diminished was 30-40%.

What about the “decrease in cell number compared to un-treated controls” value (LNCaP [4]; initial seeding densities of 50% and 25%, 5 μm/mL CTC-96) of the same compound?
The value was 30-50%.
